Like-named read-outs stand apart in the source and are kept apart here.
Columns and labels:
[1] = system: MCF-7 (hormone-responsive breast adenocarcinoma); assay: MTT cytotoxicity assay, MCF-7; type: cell-based, human
Description: (§6) Anticancer activity of cymantrenes was determined using a panel of human cancer cell lines that were derived from solid tumors. […] The inhibitory effect of cymantrene derivatives on cell proliferation and growth was determined based on survival curves and was expressed as IC50 values (concentration required to achieve a 50% decrease in cell viability when compared to the viability of untreated control cells) calculated using GraphPad Prism 4.02 software for Windows (GraphPad Software, San Diego, CA, USA). Cell viability was determined by the MTT microplate spectrophotometric cytotoxicity test.
(§7) The cytotoxicity of cymantrene derivatives was evaluated by the MTT microplate methods as described elsewhere [67] by incubating the cells with increasing concentrations of tested compounds for 24 h. Briefly, 0.1 mL of logarithmically growing cells were seeded in a 96-well microplate (5 × 10^4 cells/well) a day before the experiments and after 24 h of culture, tested compounds, dissolved in DMSO, and diluted in culture medium, were added. […] After further incubation for 24 h, the medium was replaced with fresh medium and the cells were allowed to grow for additional 48 h. Then, the medium was aspirated and 0.05 mL of MTT (final concentration of 5 mg/mL medium) added to each well, and the cells were incubated for further 4 h. The absorbance of the product, resulting from the MTT reduction, was read with a microplate reader at 545 nm. The percentage of viable cells was calculated by comparing the absorbance of treated cells with that of the untreated control cells (taken as 100%). The IC50 concentration of each compound was calculated from the cell survival curves using GraphPad Prism 4.02 software for Windows (GraphPad Software, San Diego, CA, USA).

[2] = system: SKOV-3 (ovarian adenocarcinoma); assay: MTT cytotoxicity assay, SKOV-3; type: cell-based, human
Description: as §6, §7

SKOV-3 cells [3] = assay: Autophagy (acidic vesicular organelles, AVOs), acridine orange staining; type: cell-based, human; conditions: SKOV-3, IC50 concentrations 24 h, then 0, 24 or 48 h drug-free
Description: (§1) To determine the mode of cell death that was triggered by cymantrene derivatives, appropriately stained SKOV-3 cells were evaluated for morphological changes using fluorescence microscopy. For evaluation of apoptosis and autophagy, cells were stained with Hoechst 33258/propidium iodide to distinguish between live, apoptotic and necrotic cells and reveal condensed chromatin and apoptotic bodies (a hallmark of apoptosis), and with acridine orange to detect the development of acidic vesicular organelles (AVOs—a hallmark of autophagy).
(§2) One day prior to the experiments, cells were seeded at the appropriate density into 35 mm diameter dishes. […] At the end of incubation, the medium was aspirated, the cell monolayer was washed twice with pre-warmed PBS, and fresh medium was added. The cells were cultured in drug-free medium for an additional 24 or 48 h to enable them to recover after the exposure to the compounds and to repair any induced damages.
The ability of tested compounds to induce autophagosome formation inside cells (the process associated with the induction of autophagy) was evaluated by microscopic examination of the morphology of cells stained with acridine orange (AO).

[4] = system: HepG2 (hepatocellular carcinoma); assay: MTT cytotoxicity assay, HepG2; type: cell-based, human
Description: as §6, §7

SKOV-3 cells [5] = assay: Apoptotic/necrotic cell death, Hoechst 33258/propidium iodide staining, fluorescence microscopy; type: cell-based, human; conditions: for increase of apoptotic cells compared to untreated control cells: SKOV-3, 24 h treatment with IC50 concentrations, post-treatment 24 and 48 h
Description: as §1, §2
Quantitative analysis of morphological changes that are associated with apoptosis, necrosis, and autophagy were assessed using a fluorescence microscope (Olympus IX70, Tokyo, Japan) at 400× magnification, as described elsewhere. At the indicated time points, cells were washed with PBS, trypsinized, and centrifuged at 1000 rpm (fixed angle rotor, 72× g) for 5 min at 37 °C. The supernatant was removed and the cell pellet (100 µL) was transferred to the Eppendorf tube, mixed with Ho33258 (2 µL, 0.13 mM) and PI (2 µL, 0.23 mM), and incubated for 5 min in the dark at room temperature. At least 300 stained cells were counted in triplicate in each of the three independent experiments. Cells were classified as live, apoptotic, or necrotic on the basis of their morphological and staining characteristics, and each fraction was related to the total cell number.

[6] = system: human myeloid leukemia HL-60 cells; assay: in vitro
Description: (§3) All of the cultures were maintained at 37 °C in a humidified atmosphere containing 5% of CO2. Toxicity assays were performed, as previously described, with some modifications. In brief, trypanosomes and HL-60 cells were seeded at an initial cell density of 10^4/mL and 5 × 10^4/mL, respectively, in 96-well plates in a final volume of 200 μL culture medium containing various concentrations of test compounds dissolved in 100% DMSO. […] The controls contained DMSO alone. In all of the experiments, the final DMSO concentration was 0.9%. After 24 h incubation, 20 µL of a 0.5 mM resazurin solution prepared in PBS was added and the cultures were incubated for a further 48 h. Resazurin is a vital dye that, when being reduced by living cells, changes its colour from blue to pink. Thus, by measuring absorbance, the proliferation of cells can be easily determined. The change in absorbance was read with a microplate reader using a test wavelength of 570 nm and a reference wavelength of 630 nm. GI50 values were calculated by linear interpolation according to the method described by Huber and Koella. MIC values were determined microscopically.

U87-MG (glioblastoma) = assay: MTT cytotoxicity assay, U87-MG; type: cell-based, human
Description: as §6, §7

[7] = system: bloodstream forms of T. brucei clone 427-221a; assay: Trypanocidal assay, resazurin viability assay; type: cell-based, Trypanosoma brucei
Description: as §3

[8] = system: S. epidermidis ATCC 12228; assay: Antibacterial liquid microdilution (CLSI M07-A8); type: cell-based, Staphylococcus epidermidis; conditions: 18 to 24 h
Description: (§4) Organometallic compounds play an increasingly important role in the search for new antibacterial agents. We, therefore, thought to investigate also the bactericidal activity of the newly synthesized cymantrenes 1–7, compound C and CymH. The antibacterial activity of the compounds was tested against Gram-positive methicillin-sensitive Staphylococcus aureus (MSSA), methicillin-resistant S. aureus (MRSA), vancomycin-intermediate S. aureus (VISA), S. epidermidis, and Gram-negative Escherichia coli bacterial strains, and expressed as minimal inhibitory concentration (MIC) values (Table 3).
(§5) The antibacterial activity of CymH, 1–7 and C and the reference drugs penicillin G and polymyxin B was tested by the liquid microdilution method under standard conditions using twofold dilution series, as described in the Clinical and Laboratory Standards Institute (CLSI), reference method M07-A8, and expressed as minimal inhibitory concentration (MIC) values. A panel of Gram-positive bacterial strains, S. aureus ATCC® 29213 (sensitive to methicillin, (MSSA)), S. aureus ATCC® 43300 (resistant to methicillin, (MRSA)), S. aureus ATCC 700787™ (intermediate to vancomycin, (VISA)), and S. epidermidis ATCC 12228™, and one Gram-negative, strain E. coli ATCC BAA-198™ (ESBL) were used. In addition, four clinical isolates of S. aureus (MSSA and MRSA) and two clinical isolates of S. epidermidis that were collected from different patients at the Medical University of Warsaw, Poland, were also tested. The bacterial cells were cultivated on tryptic soy agar (TSA) and nutrient agar (NA), according to ATCC recommendations. All of the strains were incubated at 37 °C. Tested compounds were dissolved in DMSO and then serially diluted twofold with cation-adjusted Mueller-Hinton broth (CAMHB). Then, 95 µL of the dilutions were dispensed into microdilution sterile plates (Mar-Four), followed by the addition of 5 µL of bacteria inoculum containing 5 × 10^4 CFU/mL. The final concentrations of the compounds ranged from 512 to 2 µg/mL. Each compound was tested in triplicate, and Penicillin G (8–0.15 µg/mL) and Polymyxin B (256–0.0625 µg/mL) were used as controls. The plates were incubated at 37 °C for 18 to 24 h depending on the bacterial strain. Thereafter, the absorbance was measured at λ = 540 nm and λ = 595 nm using a Spectrostar Omega microplate reader (BMG Labtech, Offenburg, Germany). The MIC value was defined as the lowest concentration of a compound that reduced the growth by 100%.

[9] = system: MDA-MB-231 (triple negative breast adenocarcinoma); assay: MTT cytotoxicity assay, MDA-MB-231; type: cell-based, human
Description: as §6, §7

[10] = system: E. coli ATCC BAA-198 (ESBL); assay: Antibacterial liquid microdilution (CLSI M07-A8); type: cell-based, Escherichia coli; conditions: 18 to 24 h
Description: as §4, §5

[11] = system: S. aureus ATCC 700787 (VISA); assay: Antibacterial liquid microdilution (CLSI M07-A8); type: cell-based, Staphylococcus aureus; conditions: 18 to 24 h
Description: as §4, §5

[12] = system: S. aureus ATCC 29213 (MSSA); assay: Antibacterial liquid microdilution (CLSI M07-A8); type: cell-based, Staphylococcus aureus; conditions: 18 to 24 h
Description: as §4, §5

[13] = system: S. aureus ATCC 43300 (MRSA); assay: Antibacterial liquid microdilution (CLSI M07-A8); type: cell-based, Staphylococcus aureus; conditions: 18 to 24 h
Description: as §4, §5

[14] = system: bloodstream forms of T. brucei clone 427-221a; conditions: cited from earlier work
[15] = system: human myeloid leukemia HL-60 cells; conditions: cited from earlier work
[16] = system: A549 (non-small cell lung carcinoma); assay: MTT cytotoxicity assay, A549
Description: Anticancer activity of cymantrenes was determined using a panel of human cancer cell lines that were derived from solid tumors. These included cell lines of estrogen-responsive, doxorubicin resistant, and triple negative breast adenocarcinomas (MCF-7, MCF-7/DX, and MDA-MB-231), ovarian adenocarcinoma (SKOV-3), non-small cell lung carcinoma (A549), hepatocellular carcinoma (HepG2), and glioblastoma (U-87 MG). The inhibitory effect of cymantrene derivatives on cell proliferation and growth was determined based on survival curves and was expressed as IC50 values (concentration required to achieve a 50% decrease in cell viability when compared to the viability of untreated control cells) calculated using GraphPad Prism 4.02 software for Windows (GraphPad Software, San Diego, CA, USA). Cell viability was determined by the MTT microplate spectrophotometric cytotoxicity test.
Anticancer activity of cymantrene derivetives were determined on the basis of their cytotoxic effects on a panel of human cancer cells, as derived from different types of solid tumors: estrogen responsive breast adenocarcinoma (MCF-7), triple negative breast adenocarcinoma (MDA-MB-231), ovarian adenocarcinoma (SKOV-3), non-small cell lung carcinoma (A549), hepatocellular carcinoma (HepG2), and glioblastoma (U-87 MG). Additionally, doxorubicin resistant breast adenocarcinoma cells (MCF-7/Dox) were also included for comparison. All of the cell lines were purchased from American Type Culture Collection (ATCC, Rockville, MD, USA), except the MCF-7/dox cell line, which was a generous gift from Professor Malgorzata Latocha from the Department of Cell Biology, Medical University of Silesia in Katowice, Poland.
Cells were grown as a monolayer in DMEM growth medium, supplemented with 10% FBS, penicillin (10 U/mL) and streptomycin (50 μg/mL), under standard conditions (37 °C, 5% CO2 and 95% air, 100% humidity) and periodically checked for Mycoplasma contamination.
The cytotoxicity of cymantrene derivatives was evaluated by the MTT microplate methods as described elsewhere by incubating the cells with increasing concentrations of tested compounds for 24 h. Briefly, 0.1 mL of logarithmically growing cells were seeded in a 96-well microplate (5 × 10^4 cells/well) a day before the experiments and after 24 h of culture, tested compounds, dissolved in DMSO, and diluted in culture medium, were added. […] After further incubation for 24 h, the medium was replaced with fresh medium and the cells were allowed to grow for additional 48 h. Then, the medium was aspirated and 0.05 mL of MTT (final concentration of […] medium) added to each well, and the cells were incubated for further 4 h. The absorbance of the product, resulting from the MTT reduction, was read with a microplate reader at 545 nm. The percentage of viable cells was calculated by comparing the absorbance of treated cells with that of the untreated control cells (taken as 100%). The IC50 concentration of each compound was calculated from the cell survival curves using GraphPad Prism 4.02 software for Windows (GraphPad Software, San Diego, CA, USA).

[17] = system: MCF-7/DX (estrogen-responsive breast adenocarcinoma resistant to doxorubicin); assay: cells; type: cell-based, human
Description: as §7

SMILES	IC50 [1] [µM]	IC50 [2] [µM]	induction of autophagy (cells containing AVOs) (SKOV-3 cells [3])	IC50 [4] [µM]	increase of apoptotic cells compared to untreated control cells (SKOV-3 cells [5])	IC50 (U87-MG (glioblastoma)) [µM]	IC50 [9] [µM]	GI50 [14] [µM]	T. brucei MIC [14] [µM]	GI50 [15] [µM]	further results
O=c1[nH]c(=O)n(CCC(O)[C]23[CH]4[CH]5[CH]6[CH]2[Mn]5643)cc1F.[C-]#[O+].[C-]#[O+].[C-]#[O+] (racemic) [Compound 2]	119 ± 2.97	97.5 ± 2.87	greatest autophagic changes	> 150	11 fold	100 ± 1.01	> 150	–	–	–	apoptotic cell fraction predominantly increased (SKOV-3 cells [5]; SKOV-3, IC50 concentrations): late-apoptotic cell fraction; GI50 [6]: > 100 µM; HL-60 MIC [6]: >100 µM; GI50 ([7]; 50% growth inhibition): > 100 µM; MIC ([7]; concentration at which all cells were killed, determined microscopically): >100 µM; MIC, S. epidermidis ATCC 12228 [8]: >512 µg/mL; MIC, E. coli ATCC BAA-198 [10]: >512 µg/mL; MIC, S. aureus ATCC 700787 (VISA) [11]: >512 µg/mL; MIC, S. aureus ATCC 29213 (MSSA) [12]: >512 µg/mL; MIC, S. aureus ATCC 43300 (MRSA) [13]: >512 µg/mL
Nc1ncnc2c1ncn2CCC(O)[C]12[CH]3[CH]4[CH]5[CH]1[Mn]4532.[C-]#[O+].[C-]#[O+].[C-]#[O+] (racemic) [Compound B]	> 150	> 150	Less induction of autophagy	> 150	only a three-fold increase	> 150	> 150	30.8 ± 3.5	>100	> 100	Selectivity GI50 Ratio ([14]; HL-60 / T. brucei): >3.2; IC50 [16]: > 150000 nM
NCCCC(N)(C(=O)O)C(F)F (stereo not shown) [DFMO, difluoromethylornithine, reference compound]	–	–	–	–	–	–	–	23.9	>125	–	–
COc1cccc2c1C(=O)c1c(O)c3c(c(O)c1C2=O)C[C@@](O)(C(=O)CO)C[C@@H]3O[C@H]1C[C@H](N)[C@H](O)[C@H](C)O1 [DOX, doxorubicin, reference compound]	–	–	–	–	–	–	–	–	–	–	IC50 ([1]; Homo sapiens, MCF7, 24 h, read-out: cytotoxicity IC50, MCF-7): 0.439 ± 0.026 µM; IC50 ([2]; Homo sapiens, SK-OV-3, 24 h, read-out: cytotoxicity IC50, SKOV-3): 0.858 ± 0.044 µM; IC50 ([4]; Homo sapiens, HepG2, 24 h, read-out: cytotoxicity IC50, HepG2): 0.569 ± 0.021 µM; IC50 (U87-MG (glioblastoma); Homo sapiens, U-87 MG, 24 h, read-out: cytotoxicity IC50, U87-MG): 0.61 ± 0.029 µM; IC50 ([9]; Homo sapiens, MDA-MB-231, 24 h, read-out: cytotoxicity IC50, MDA-MB-231): 1.07 ± 0.062 µM; IC50 ([17]; Homo sapiens, MCF7/DX, 24 h, read-out: cytotoxicity IC50, MCF-7/DX): 48.5 ± 2.78 µM; fold less effective against MCF-7/DX cells than MCF-7 cells ([17]; MCF-7/DX vs MCF-7): ~100 fold; IC50 ([16]; Homo sapiens, A549, 24 h, read-out: cytotoxicity IC50, A549): 300 ± 18 nM
O=C(CCn1ccc(=O)[nH]c1=O)[C]12[CH]3[CH]4[CH]5[CH]1[Mn]4532.[C-]#[O+].[C-]#[O+].[C-]#[O+] (stereo not shown) [non-fluorinated counterpart]	–	–	–	–	–	–	–	3.6	100	> 100	HL-60 MIC [15]: > 100 µM
